The structures appear in SMILES notation. pIC50: −log10 of the molar value.

The target of the test is T1, Syk kinase (Homo sapiens, UniProt P43405).
T1 construct: purchased
Nature of the test: Syk kinase inhibition, Caliper LabChip off-chip mobility-shift kinase assay. The class given is biochemical. To be noted: read-out: Syk Enzyme IC50. The gist of the method: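 Purified Syk pre-incubated 15 min with compound in 100 mM HEPES pH 7.5, 1 mM DTT, 10 mM MgCl2 or MnCl2, 0.002% Brij-35, then 1.5 μM fluorescein peptide and ATP at apparent KM added; 1–1.5 h at room temperature, 4% DMSO, EDTA stop. Microfluidic mobility-shift product/substrate conversion gave % inhibition; IC50 from 12-point series (10–0.00003 μM) by 4-parameter fit.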
As for `Cc1ncc(-c2cc3cc[nH]c(=O)c3c(Nc3ccc(C4CCN(C5CS(=O)(=O)C5)CC4)c(C)c3)n2)cn1` [compound 107], the pIC50 is 6.93.

For the molecule `CCN1CCN(C2CCC(c3ccc(Nc4nc(-c5cncnc5)cc5cc[nH]c(=O)c45)cc3)CC2)CC1` (centres unmarked) [compound 108], the pIC50 is 6.94.

Turning to `COc1cncc(-c2cc3cc[nH]c(=O)c3c(Nc3ccc(C4CCC(N(C)C)CC4)cc3)n2)n1` (centres unmarked) [compound 109], the pIC50 was 7.51.

Take `O=c1[nH]ccc2cc(-c3cncnc3)nc(Nc3ccc([C@H]4CC[C@H](N5CCOCC5)CC4)cc3)c12` [compound 111]: the pIC50 is 6.72.

Take `COc1cncc(-c2cc3cc[nH]c(=O)c3c(Nc3ccc(C4CCN(C(=O)N5CCCC5)CC4)c(C)c3)n2)n1` [compound 113]: the pIC50 is 5.64.

For `COc1cncc(-c2cc3cc[nH]c(=O)c3c(Nc3ccc(C4CCN(C(=O)N5CCNC5=O)CC4)c(C)c3)n2)n1` [compound 114], the pIC50 was 6.76.

Turning to `COc1cncc(-c2cc3cc[nH]c(=O)c3c(Nc3ccc(C4CCN(C(=O)N5CCOCC5)CC4)c(C)c3)n2)n1` [compound 115], the pIC50 is 6.74.

For `COC(=O)C(C)N1CCC(c2ccc(Nc3nc(-c4cncc(OC)n4)cc4cc[nH]c(=O)c34)cc2C)CC1` (centres unmarked) [compound 116], the pIC50 is 6.74.

As to `COc1cncc(-c2cc3cc[nH]c(=O)c3c(Nc3ccc(C4CCN(C(C)C(=O)O)CC4)c(C)c3)n2)n1` (centres unmarked) [compound 117], the pIC50 is 7.66.

Consider `CCC(C(=O)OC)N1CCC(c2ccc(Nc3nc(-c4cncc(OC)n4)cc4cc[nH]c(=O)c34)cc2C)CC1` (centres unmarked) [compound 118], for which the pIC50 was 6.46.

As for `CCC(C(=O)O)N1CCC(c2ccc(Nc3nc(-c4cncc(OC)n4)cc4cc[nH]c(=O)c34)cc2C)CC1` (centres unmarked) [compound 119], the pIC50 is 8.30.

Regarding `CCNC(=O)C(C)N1CCC(c2ccc(Nc3nc(-c4cncc(OC)n4)cc4cc[nH]c(=O)c34)cc2C)CC1` (centres unmarked) [compound 120], the pIC50 is 7.64.

With `COc1cncc(-c2cc3cc[nH]c(=O)c3c(Nc3ccc(C4CCN(C(C)C(=O)NC5CC5)CC4)c(C)c3)n2)n1` (centres unmarked) [compound 121], the pIC50 is 6.74.

For the molecule `COc1cncc(-c2cc3cc[nH]c(=O)c3c(Nc3ccc(C4CCN(C(C)C(=O)NCCO)CC4)c(C)c3)n2)n1` (centres unmarked) [compound 122], the pIC50 is 7.04.

Take `COCCNC(=O)C(C)N1CCC(c2ccc(Nc3nc(-c4cncc(OC)n4)cc4cc[nH]c(=O)c34)cc2C)CC1` (centres unmarked) [compound 123]: the pIC50 was 6.82.

Take `Cc1ccc(-c2cc3cc[nH]c(=O)c3c(Nc3cnn(CCN4CCOCC4)c3)n2)cn1` [compound 126]: the pIC50 was 7.00.

With `COc1cncc(-c2cc3cc[nH]c(=O)c3c(Nc3ccc(C4CCN(CC(O)CO)CC4)cc3)n2)n1` (centres unmarked) [compound 127], the pIC50 is 8.15.

Regarding `COc1cncc(-c2cc3cc[nH]c(=O)c3c(Nc3ccc(C4CCN(CCC#N)CC4)c(C)c3)n2)n1` [compound 128], the pIC50 was 7.10.

As for `O=c1[nH]ccc2cc(-c3cncnc3)nc(Nc3ccc(C4CNC4)cc3)c12` [compound 129], the pIC50 was 6.96.

In the case of `COc1ncc(-c2cc3cc[nH]c(=O)c3c(Nc3ccc(C4CNC4)cc3)n2)cn1` [compound 130], the pIC50 is 7.24.

For the molecule `Cc1ccc(-c2cc3cc[nH]c(=O)c3c(Nc3ccc(C4CNC4)cc3)n2)cn1` [compound 131], the pIC50 was 6.95.

For `COc1cncc(-c2cc3cc[nH]c(=O)c3c(Nc3ccc(C4CCN(CCS(C)(=O)=O)CC4)c(C)c3)n2)n1` [compound 132], the pIC50 is 6.94.

As to `COc1cncc(-c2cc3cc[nH]c(=O)c3c(Nc3ccc(C4CCN(CC#N)CC4)c(C)c3)n2)n1` [compound 133], the pIC50 is 6.89.

`COc1cncc(-c2cc3cc[nH]c(=O)c3c(Nc3ccc(C4CCN(CC(N)=O)CC4)c(C)c3)n2)n1` [compound 134]: the pIC50 is 7.40.

`CNC(=O)CN1CCC(c2ccc(Nc3nc(-c4cncc(OC)n4)cc4cc[nH]c(=O)c34)cc2C)CC1` [compound 135]: the pIC50 is 7.32.

In the case of `COc1cncc(-c2cc3cc[nH]c(=O)c3c(Nc3ccc(C4CCN(C(C)C(N)=O)CC4)c(C)c3)n2)n1` (centres unmarked) [compound 136], the pIC50 was 7.34.

Regarding `CCN1CCC(c2ccc(Nc3nc(-c4cncc(OC)n4)cc4cc[nH]c(=O)c34)cc2C)CC1` [compound 137], the pIC50 is 8.00.

With `CN1CC(c2ccc(Nc3nc(-c4cncnc4)cc4cc[nH]c(=O)c34)cc2)C1` [compound 138], the pIC50 is 7.59.

`COc1ncc(-c2cc3cc[nH]c(=O)c3c(Nc3ccc(C4CN(C)C4)cc3)n2)cn1` [compound 139]: the pIC50 was 7.47.

On to `Cc1ccc(-c2cc3cc[nH]c(=O)c3c(Nc3ccc(C4CN(C)C4)cc3)n2)cn1` [compound 140], for which the pIC50 was 7.57.

As for `COCCCN1CCC(c2ccc(Nc3nc(-c4cncc(OC)n4)cc4cc[nH]c(=O)c34)cc2C)CC1` [compound 141], the pIC50 is 8.15.

Consider `COCC(O)CN1CCC(c2ccc(Nc3nc(-c4cncc(OC)n4)cc4cc[nH]c(=O)c34)cc2C)CC1` (centres unmarked) [compound 142], for which the pIC50 is 8.15.

For the molecule `COc1cncc(-c2cc3cc[nH]c(=O)c3c(Nc3ccc(C4CCN(CCO)CC4)c(C)c3)n2)n1` [compound 143], the pIC50 was 8.30.

With `COc1cncc(-c2cc3cc[nH]c(=O)c3c(Nc3ccc(C4CCN(C(C)=O)CC4)c(C)c3)n2)n1` [compound 144], the pIC50 is 7.04.

For `COc1cncc(-c2cc3cc[nH]c(=O)c3c(Nc3ccc(C4CNC4)cc3)n2)n1` [compound 145], the pIC50 is 8.22.

For the molecule `COc1cncc(-c2cc3cc[nH]c(=O)c3c(Nc3ccc(C4CN(C)C4)cc3)n2)n1` [compound 146], the pIC50 is 8.40.

With `COc1cncc(-c2cc3cc[nH]c(=O)c3c(Nc3ccc(C4CN(CCO)C4)cc3)n2)n1` [compound 147], the pIC50 was 8.40.

In the case of `COc1cncc(-c2cc3cc[nH]c(=O)c3c(Nc3ccc(C4CN(CCS(C)(=O)=O)C4)cc3)n2)n1` [compound 148], the pIC50 was 7.66.

Consider `COc1cncc(-c2cc3cc[nH]c(=O)c3c(Nc3ccc(C4CN(C(C)=O)C4)cc3)n2)n1` [compound 149], for which the pIC50 is 7.62.

As to `COCCN1CC(c2ccc(Nc3nc(-c4cncc(OC)n4)cc4cc[nH]c(=O)c34)cc2)C1` [compound 150], the pIC50 is 7.08.

Turning to `COc1ncc(-c2cc3cc[nH]c(=O)c3c(Nc3ccc(CCN4CCNC(=O)C4)cc3)n2)cn1` [compound 151], the pIC50 is 6.70.

Turning to `Cc1ccc(-c2cc3cc[nH]c(=O)c3c(Nc3ccc(CCN4CCNC(=O)C4)cc3)n2)cn1` [compound 152], the pIC50 was 6.93.

`COc1cncc(-c2cc3cc[nH]c(=O)c3c(Nc3ccc(C4CN(CCC#N)C4)cc3)n2)n1` [compound 153]: the pIC50 was 7.49.

As to `COc1nc(-c2cc3cc[nH]c(=O)c3c(Nc3ccc(C4CCN(CCC#N)CC4)cc3)n2)cnc1N` [compound 154], the pIC50 was 7.70.

For the molecule `COc1cncc(-c2cc3cc[nH]c(=O)c3c(Nc3ccc(CCN4CCNC(=O)C4)cc3)n2)n1` [compound 155], the pIC50 was 7.26.

Regarding `COc1cncc(-c2cc3cc[nH]c(=O)c3c(Nc3ccc(C4CCN(CC(=O)N5CCCC5)CC4)c(C)c3)n2)n1` [compound 156], the pIC50 is 7.39.

As to `COC(=O)CN1CCC(c2ccc(Nc3nc(-c4cncc(OC)n4)cc4cc[nH]c(=O)c34)cc2C)CC1` [compound 157], the pIC50 is 7.00.

Usually pIC50 stands for the IC50 on a negative log10 scale, so that one unit is a factor of ten.

Source of the values: patent US20110053897A1 (IRM LLC, priority 2009, published 2011).
